Results reported in article PMC7789826 (Journal of Molecular Structure, 2021).

Biological target: voltage-gated potassium channel Kv1.3 (Homo sapiens, UniProt P22001)
Test: whole-cell patch clamp, voltage ramp, endogenous Kv1.[…] current in Jurkat T cells
Assay type: cell-based

Sequence of voltage-gated potassium channel Kv1.3 (P22001 whole entry): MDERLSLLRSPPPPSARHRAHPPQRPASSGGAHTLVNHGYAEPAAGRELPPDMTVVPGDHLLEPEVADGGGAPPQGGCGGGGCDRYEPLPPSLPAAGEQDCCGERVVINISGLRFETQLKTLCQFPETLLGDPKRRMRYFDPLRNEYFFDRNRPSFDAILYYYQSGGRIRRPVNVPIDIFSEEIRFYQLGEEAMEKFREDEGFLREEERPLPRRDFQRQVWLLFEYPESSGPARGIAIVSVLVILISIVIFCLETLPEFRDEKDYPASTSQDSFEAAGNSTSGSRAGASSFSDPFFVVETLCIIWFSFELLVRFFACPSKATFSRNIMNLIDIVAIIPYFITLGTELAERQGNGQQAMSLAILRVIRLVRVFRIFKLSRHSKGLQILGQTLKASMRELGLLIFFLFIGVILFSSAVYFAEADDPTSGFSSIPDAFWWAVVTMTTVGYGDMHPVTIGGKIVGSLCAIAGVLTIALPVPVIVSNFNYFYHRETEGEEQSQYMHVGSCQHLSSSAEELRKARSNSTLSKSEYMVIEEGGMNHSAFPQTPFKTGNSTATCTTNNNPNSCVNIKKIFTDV

Structure (SMILES): CC[C@H](C)C(=O)O[C@H]1CCC=C2C=C[C@H](C)[C@H](CC[C@@H]3C[C@@H](O)CC(=O)O3)[C@H]21 [mevastatin]
- EC50: 6.04 µM

Structure (SMILES): CCC(C)(C)C(=O)O[C@H]1C[C@@H](C)C=C2C=C[C@H](C)[C@H](CC[C@@H]3C[C@@H](O)CC(=O)O3)[C@H]21 [simvastatin]
- EC50: 4.85 µM
